Measured values: ChEMBL document CHEMBL1144644, “Synthesis and biological evaluation of 12 allenic aromatic ethers” (Bioorg Med Chem Lett, 2007)

Legend:
[1] = Antitumor activity against KBv200 cells by MTT assay; format: functional, cell-based; details: Homo sapiens
[2] = test system: KB; assay: Antitumor activity against KB cells by MTT assay; format: functional, cell-based; details: Homo sapiens

| SMILES | IC50 [2] [µM] | IC50 [1] [µM] |
| --- | --- | --- |
| OCc1ccc(O)cc1 [PARAHYDROXYBENZYL ALCOHOL] | > 200 | > 200 |
| O=C(O)/C=C/c1ccc(O)cc1 [COUMARIC ACID] | > 200 | > 200 |
| COC(=O)/C=C/c1ccc(O)c(OC)c1 | > 200 | > 200 |
| COC(=O)c1ccc(O)cc1 [METHYLPARABEN] | > 200 | > 200 |
| C=C=CCO | > 200 | > 200 |
| C=C=CCBr | > 200 | > 200 |
| O=C(O)c1ccc(O)cc1 [PARABEN] | > 200 | > 200 |
| COC(=O)C1(NC(=O)/C=C/c2ccc(O)cc2)CC1 | > 200 | > 200 |
| O=C(/C=C/c1ccc(O)c(O)c1)OC1C[C@@](O)(C(=O)O)C[C@H](O)[C@@H]1O (stereo partly drawn) | > 200 | > 200 |
| COC(=O)C1(N)CC1 | 135 | > 200 |
| COC(=O)/C=C/c1ccc(O)c(O)c1 [METHYLCAFFEATE] | > 200 | > 200 |

These reach a lower IC50 [2]. Values come first.

| IC50 [2] [µM] | SMILES | IC50 [1] [µM] |
| --- | --- | --- |
| 123 | COC(=O)/C=C/c1ccc(O)cc1 [METHYL P-HYDROXYCINNAMATE] | 101 |
| 53.1 | C=C=CCOC(=O)[C@]1(O)CC(OC(=O)/C=C/c2ccc(OCC=C=C)c(O)c2)[C@@H](O)[C@@H](O)C1 (stereo partly drawn) | 35.7 |
| 17.4 | C=C=CCOc1ccc(/C=C/C(=O)OC)cc1OC | 18.3 |
| 48.8 | C=C=CCOc1ccc(COc2ccc(/C=C/C(=O)OC)cc2)cc1 | 55.5 |
| 71.5 | C=C=CCOc1ccc(/C=C/C(=O)O)cc1 | 52.4 |
| 74.5 | C=C=CCOc1ccc(CO)cc1 [TERRICOLLENE C] | 76.6 |
| 29.4 | C=C=CCOc1ccc(/C=C/C(=O)OC)cc1O | 23.4 |
| 40.6 | C=C=CCOc1ccc(C(=O)O)cc1 | 49.6 |
| 75.4 | C=C=CCOc1ccc(COc2ccc(C(=O)OC)cc2)cc1 | 52.9 |
| 27.6 | C=C=CCOc1ccc(/C=C/C(=O)OC)cc1 | 19 |
| 48.1 | C=C=CCOc1ccc(/C=C/C(=O)NC2(C(=O)OC)CC2)cc1 | 77 |
| 22.5 | C=C=CCOc1ccc(C(=O)OC)cc1 | 20.9 |
| 34.6 | C=C=CCOc1ccc(COc2ccc(/C=C/C(=O)OC)cc2OC)cc1 | 30.3 |
